The target of test [1] is T1, DNA-(apurinic or apyrimidinic site) endonuclease (Homo sapiens, UniProt P27695). Kind of test: Gel-Based Assay. An excerpt: In addition to the real-time fluorescence assay for studying inhibition of APE-1 activity, we also employed a gel-based assay to visualize and quantify repair activity of APE-1 and its inhibition.
For test [2], the target named is T1, DNA-(apurinic or apyrimidinic site) endonuclease. Put plainly: Molecular Beacon Assay. How it is done: A fluorescenc-based molecular beacon assay to measure APE-1 protein activity and inhibition was performed as described.

The record followed here is BindingDB's records for doi:10.1021/bi300490r (University of Pittsburgh, 2012).

T1 sequence (P27695 whole entry): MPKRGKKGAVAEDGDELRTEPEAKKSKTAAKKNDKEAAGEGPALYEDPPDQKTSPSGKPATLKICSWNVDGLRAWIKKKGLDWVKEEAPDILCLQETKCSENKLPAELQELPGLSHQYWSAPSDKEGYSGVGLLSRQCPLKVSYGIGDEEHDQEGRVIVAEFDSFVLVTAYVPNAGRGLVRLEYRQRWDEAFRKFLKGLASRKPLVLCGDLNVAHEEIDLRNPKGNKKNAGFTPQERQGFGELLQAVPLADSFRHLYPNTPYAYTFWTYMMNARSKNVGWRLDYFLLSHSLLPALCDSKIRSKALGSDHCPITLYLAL

In general, IC50 refers to the point on the concentration scale where inhibition reaches its midpoint. The term Ki denotes a dissociation constant, usually derived from enzyme kinetics or from competition with a known ligand. Low readings indicate a stronger hold on the target, high ones a looser hold on the target. `CCn1c2ccccc2c2cc(CN=Nc3cc(C)nc4cc5c(cc34)OCO5)ccc21` [NSC332395, 4]: the IC50 in test [1] stood at 4.1 µM. Moreover, in test [2], the affinity, expressed as Ki, was 0.12 µM.
The corresponding values for `Cc1cc(N=NC(C)c2cn(C)n(-c3ccccc3)c2=O)c2cc3c(cc2n1)OCO3` (configuration not stated) [NSC332398, 1] are 4.4 µM and 0.18 µM.
Regarding `COc1ccc(C(Cc2ccccc2)/N=N/c2ccc([N+](=O)[O-])c([N+](=O)[O-])c2)cc1` (configuration not stated) [NSC131534, 11], affinity in test [2] was put at a Ki of 6.7 µM.
For `C/C(=N\Nc1cc(C)c2ccccc2n1)c1cn(C)n(-c2ccccc2)c1=O` [NSC332410, 8], the IC50 in test [1] was over 100 µM.
Consider `Cc1cc(N=NCc2ccc3c(c2)OCO3)c2cc3c(cc2n1)OCO3` [NSC332389, 3], for which the IC50 in test [1] stood at 2.9 µM. In test [2], this compound had a Ki of 0.19 µM.
The compound `COc1cccc(CN=Nc2cc(C)nc3cc4c(cc23)OCO4)c1` [NSC332384, 2] had an IC50 in test [1] of 10.1 µM. Besides, the Ki in test [2] was 0.22 µM.
For `Cc1ccc2nc(C)cc(N=NC(C)c3cn(C)n(-c4ccccc4)c3=O)c2c1` (configuration not stated) [NSC300598, 7], the affinity in test [2], expressed as Ki, was 10.9 µM. This lies in the double-digit micromolar range.
The same measure, in the same setting: with `O=C(O)C(CCCCNc1ccc([N+](=O)[O-])cc1[N+](=O)[O-])Nc1ccc([N+](=O)[O-])cc1[N+](=O)[O-]` (configuration not stated) [NSC89640, 9] the figure was 13 µM.
In turn, `Cc1cc(N=NCc2c(C)n(C)n(-c3ccccc3)c2=O)c2cc3c(cc2n1)OCO3` [NSC332396, 5] yielded an IC50 in test [1] of 34.4 µM. Also, in test [2], the affinity corresponds to a Ki of 0.68 µM.
In test [2], `O=C(CC(=Nc1ccccc1)C(=O)c1ccccc1)c1ccccc1` [NSC402686, 14] came in with a Ki of 37 µM.
Same read-out and setting: with `N=c1[nH]nc2nc(CC(=O)c3ccccc3[N+](=O)[O-])c(CC(=O)c3ccccc3[N+](=O)[O-])nn12` [NSC614430, 13] the figure was 4.9 µM.
Still for that read-out and setting: the figure for `O=C(/C=C\c1ccc([N+](=O)[O-])cc1)NCCCCNC(=O)/C=C/c1ccc([N+](=O)[O-])cc1` [NSC107215, 10] is 17 µM.
